In the supplement of paper PMC10307832:

Experiments:
Assay in all cases: relative viability (nuclei count vs DMSO), 5 days (fraction); higher = more cells survive
Adavosertib = compound: C=CCn1c(=O)c2cnc(Nc3ccc(N4CCN(C)CC4)cc3)nc2n1-c1cccc(C(C)(C)O)n1 [Adavosertib]
Procedure, shortened: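 Cells of lung cancer lines were placed in 1536-well plates and kept overnight at 37 °C. Pinning then delivered five library-drug doses (not always all listed), spaced by √10, onto plates anchored with vehicle, and the cells were left 5 days without changing medium. One step fixed, permeabilised and stained them with Hoechst, and MetaXpress counted nuclei in 4× images. Viability, as a median over plates, is treated-well nuclei divided by vehicle-well nuclei, with acceptance only at control CV below 25% and at least one doubling.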

Adavosertib + Bortezomib = compound: C=CCn1c(=O)c2cnc(Nc3ccc(N4CCN(C)CC4)cc3)nc2n1-c1cccc(C(C)(C)O)n1 [Adavosertib] + CC(C)C[C@H](NC(=O)[C@H](Cc1ccccc1)NC(=O)c1cnccn1)B(O)O [Bortezomib] (partner 0.002 µM)
Procedure, shortened: (§1)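 Five library-drug doses in √10 steps were combined with a fixed anchor-drug dose, or a single drug was given alone, by pin tool to lung cancer cell lines in 1536-well plates the day after seeding. Nuclei were stained and counted after 5 days. Relative viability is the nuclei count in treated wells over that in vehicle wells, taken as the median of duplicate plates.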

Nelarabine + Phenformin = compound: COc1nc(N)nc2c1ncn2[C@@H]1O[C@H](CO)[C@@H](O)[C@@H]1O [Nelarabine] + N=C(N)NC(=N)NCCc1ccccc1 [Phenformin] (partner 250 µM)
Procedure, shortened: as §1

Adavosertib + Pemetrexed = compound: C=CCn1c(=O)c2cnc(Nc3ccc(N4CCN(C)CC4)cc3)nc2n1-c1cccc(C(C)(C)O)n1 [Adavosertib] + Nc1nc2[nH]cc(CCc3ccc(C(=O)N[C@@H](CCC(=O)O)C(=O)O)cc3)c2c(=O)[nH]1 [Pemetrexed] (partner 0.2 µM)
Procedure, shortened: as §1

| Cell Line | relative viability (Adavosertib; 0.01 µM) | relative viability (Adavosertib; 0.03162 µM) | relative viability (Adavosertib; 0.1 µM) | relative viability (Adavosertib; 0.3162 µM) | relative viability (Adavosertib + Bortezomib; first compound 0.01 µM) | relative viability (Adavosertib + Bortezomib; first compound 0.03162 µM) | relative viability (Adavosertib + Bortezomib; first compound 0.1 µM) | relative viability (Adavosertib + Bortezomib; first compound 0.3162 µM) | relative viability (Nelarabine + Phenformin; first compound 0.01 µM) | relative viability (Nelarabine + Phenformin; first compound 0.03162 µM) | relative viability (Nelarabine + Phenformin; first compound 0.1 µM) | relative viability (Nelarabine + Phenformin; first compound 0.3162 µM) | relative viability (Nelarabine + Phenformin; first compound 1 µM) | relative viability (Adavosertib + Pemetrexed; first compound 0.01 µM) | relative viability (Adavosertib + Pemetrexed; first compound 0.03162 µM) | relative viability (Adavosertib + Pemetrexed; first compound 0.1 µM) | relative viability (Adavosertib + Pemetrexed; first compound 0.3162 µM) |
| --- | --- | --- | --- | --- | --- | --- | --- | --- | --- | --- | --- | --- | --- | --- | --- | --- | --- |
| COR-L 105 | 0.865 | 0.885 | 0.807 | 0.747 | 0.984 | 0.719 | 0.855 | 0.627 | 0.497 | 0.594 | 0.473 | 0.454 | 0.458 | 0.976 | 1.07 | 1.07 | 0.916 |
| BEN | 0.886 | 1.04 | 1.06 | 1.09 | 0.807 | 0.986 | 0.811 | 0.851 | 0.264 | 0.269 | 0.276 | 0.221 | 0.273 | 0.739 | 0.76 | 0.816 | 0.815 |
| HARA | 0.929 | 1.04 | 1.01 | 0.897 | 0.981 | 1.17 | 1.13 | 0.938 | 0.62 | 0.488 | 0.422 | 0.579 | 0.505 | 0.244 | 0.22 | 0.229 | 0.191 |
| NCI-H1437 | 1.02 | 0.912 | 1.03 | 0.981 | 0.56 | 0.596 | 0.475 | 0.518 | 0.304 | 0.309 | 0.318 | 0.302 | 0.325 | 0.328 | 0.281 | 0.309 | 0.229 |
| HCC-44 | 0.927 | 0.987 | 0.971 | 0.984 | 0.889 | 0.95 | 0.89 | 1.04 | 0.194 | 0.157 | 0.173 | 0.167 | 0.185 | 0.677 | 0.602 | 0.574 | 0.433 |
| COR-L23 | 1.14 | 1.02 | 1.03 | 0.585 | 0.976 | 1.03 | 0.95 | 0.546 | 0.525 | 0.385 | 0.356 | 0.416 | 0.448 | 0.203 | 0.198 | 0.204 | 0.165 |
| 201T | 0.973 | 1.02 | 0.981 | 1.04 | 1.06 | 1.06 | 1.16 | 1.14 | 0.459 | 0.416 | 0.451 | 0.433 | 0.417 | 0.319 | 0.343 | 0.325 | 0.281 |
| NCI-H23 | 0.925 | 0.98 | 0.659 | 0.313 | 0.97 | 1.05 | 0.844 | 0.327 | 0.778 | 0.766 | 0.684 | 0.847 | 0.79 | 0.664 | 0.539 | 0.487 | 0.262 |
| EKVX | 0.975 | 0.967 | 0.955 | 1.1 | 0.992 | 1.14 | 0.996 | 1.27 | 0.22 | 0.234 | 0.231 | 0.22 | 0.232 | 0.426 | 0.374 | 0.309 | 0.362 |
| NCI-H1563 | 0.954 | 0.894 | 0.917 | 1.01 | 0.9 | 0.901 | 0.86 | 0.869 | 0.707 | 0.665 | 0.63 | 0.73 | 0.665 | 0.677 | 0.903 | 0.713 | 0.808 |
| NCI-H1915 | 0.999 | 1.01 | 1.06 | 0.996 | 0.93 | 0.967 | 0.987 | 0.972 | 0.378 | 0.315 | 0.367 | 0.371 | 0.367 | 0.528 | 0.464 | 0.346 | 0.259 |
| LU99A | 1.03 | 0.977 | 0.894 | 0.924 | 1.34 | 0.998 | 1.09 | 0.827 | 0.88 | 0.767 | 0.837 | 0.864 | 0.854 | 0.156 | 0.165 | 0.144 | 0.115 |
| LCLC-103H | 1.03 | 0.981 | 0.954 | 0.985 | 1.03 | 1.1 | 1.05 | 1.08 | 0.329 | 0.283 | 0.333 | 0.328 | 0.345 | 0.445 | 0.462 | 0.427 | 0.449 |
| SK-LU-1 | 1.1 | 1.04 | 0.886 | 0.488 | 1.07 | 1.29 | 1.16 | 0.479 | 0.564 | 0.364 | 0.553 | 0.679 | 0.499 | 1.03 | 0.967 | 0.812 | 0.536 |
| NCI-H1755 | 1.02 | 0.998 | 0.958 | 0.86 | 0.965 | 0.905 | 1.01 | 1.03 | 0.63 | 0.548 | 0.547 | 0.659 | 0.619 | 0.419 | 0.43 | 0.43 | 0.392 |
| NCI-H647 | 1.03 | 1.04 | 0.918 | 0.669 | 1.01 | 0.748 | 1.11 | 0.642 | 0.641 | 0.301 | 0.631 | 0.501 | 0.427 | 0.155 | 0.159 | 0.141 | 0.123 |
| NCI-H1734 | 1.03 | 0.972 | 1 | 0.676 | 1.01 | 1.01 | 1.02 | 0.696 | 0.446 | 0.388 | 0.412 | 0.366 | 0.38 | 0.409 | 0.39 | 0.325 | 0.323 |
| NCI-H2009 | 1.02 | 1.01 | 1.07 | 1.02 | 1.09 | 1.05 | 1.04 | 1.02 | 0.555 | 0.518 | 0.479 | 0.532 | 0.47 | 1.03 | 0.987 | 1.04 | 0.775 |
